Measured values taken from paper PMC6677754, “In silico design and optimization of selective membranolytic anticancer peptides” (Scientific Reports, 2019).
Peptide text beside a SMILES is read from it.

Legend:
Experiment in all cases: NCI-60 screening
Format in all cases: cell-based, human
NCI-H226 = NCI-H226 (Lung); log GI50; 48 h, sulforhodamine B, 10^-4 to 10^-8 M
Method: (§1) NCI-60 screening procedure
(§2) The NCI-60 screening procedure was performed by the Developmental Therapeutics Program of the National Cancer Institute. The procedure was performed as previously described24 in 96-well microtiter plates. Each peptide was tested in a 5-concentration assay, starting at 10^-4 M and diluting 10-fold to the lowest 10^-8 M concentration. The peptides were incubated for 48 h and the cell concentration was assayed by using the sulforhodamine B assay25 and optical density measurements. The growth inhibition (GI50) value24, measures the growth inhibitory power of the drug agent. The GI50 value is the concentration of the test drug for which the condition in Eq. S1 is met, where T is the optical density of the test well after a 48-h exposure to the peptide, T0 the optical density before applying the peptide drug and C the control optical density of a well where no peptide was applied.

SK-OV-3 = SK-OV-3 (Ovarian); log GI50; 48 h, sulforhodamine B, 10^-4 to 10^-8 M
Method: as §1, §2

HT29 = HT29 (Colon); log GI50; 48 h, sulforhodamine B, 10^-4 to 10^-8 M
Method: as §1, §2

RXF-393 = RXF-393 (Renal); log GI50; 48 h, sulforhodamine B, 10^-4 to 10^-8 M
Method: as §1, §2

HCT-15 = HCT-15 (Colon); log GI50; 48 h, sulforhodamine B, 10^-4 to 10^-8 M
Method: as §1, §2

NCI-H322M = NCI-H322M (Lung); log GI50; 48 h, sulforhodamine B, 10^-4 to 10^-8 M
Method: as §1, §2

HCT-116 = HCT-116 (Colon); log GI50; 48 h, sulforhodamine B, 10^-4 to 10^-8 M
Method: as §1, §2

HCC-2998 = HCC-2998 (Colon); log GI50; 48 h, sulforhodamine B, 10^-4 to 10^-8 M
Method: as §1, §2

A549/ATCC = A549/ATCC (Lung); log GI50; 48 h, sulforhodamine B, 10^-4 to 10^-8 M
Method: as §1, §2

MALME-3M = MALME-3M (Melanoma); log GI50; 48 h, sulforhodamine B, 10^-4 to 10^-8 M
Method: as §1, §2

NCI-H460 = NCI-H460 (Lung); log GI50; 48 h, sulforhodamine B, 10^-4 to 10^-8 M
Method: as §1, §2

SNB-75 = SNB-75 (CNS); log GI50; 48 h, sulforhodamine B, 10^-4 to 10^-8 M
Method: as §1, §2

MCF7 = MCF7 (Breast); log GI50; 48 h, sulforhodamine B, 10^-4 to 10^-8 M
Method: as §1, §2

PC-3 = PC-3 (Prostate); log GI50; 48 h, sulforhodamine B, 10^-4 to 10^-8 M
Method: as §1, §2

M14 = M14 (Melanoma); log GI50; 48 h, sulforhodamine B, 10^-4 to 10^-8 M
Method: as §1, §2

NCI-H23 = NCI-H23 (Lung); log GI50; 48 h, sulforhodamine B, 10^-4 to 10^-8 M
Method: as §1, §2

SK-MEL-28 = SK-MEL-28 (Melanoma); log GI50; 48 h, sulforhodamine B, 10^-4 to 10^-8 M
Method: as §1, §2

SW-620 = SW-620 (Colon); log GI50; 48 h, sulforhodamine B, 10^-4 to 10^-8 M
Method: as §1, §2

K-562 = K-562 (Leukemia); log GI50; 48 h, sulforhodamine B, 10^-4 to 10^-8 M
Method: as §1, §2

TK-10 = TK-10 (Renal); log GI50; 48 h, sulforhodamine B, 10^-4 to 10^-8 M
Method: as §1, §2

HOP-92 = HOP-92 (Lung); log GI50; 48 h, sulforhodamine B, 10^-4 to 10^-8 M
Method: as §1, §2

MDA-MB-231/ATCC = MDA-MB-231/ATCC (Breast); log GI50; 48 h, sulforhodamine B, 10^-4 to 10^-8 M
Method: as §1, §2

UACC-62 = UACC-62 (Melanoma); log GI50; 48 h, sulforhodamine B, 10^-4 to 10^-8 M
Method: as §1, §2

HOP-62 = HOP-62 (Lung); log GI50; 48 h, sulforhodamine B, 10^-4 to 10^-8 M
Method: as §1, §2

SF-295 = SF-295 (CNS); log GI50; 48 h, sulforhodamine B, 10^-4 to 10^-8 M
Method: as §1, §2

SF-268 = SF-268 (CNS); log GI50; 48 h, sulforhodamine B, 10^-4 to 10^-8 M
Method: as §1, §2

LOX IMVI = LOX IMVI (Melanoma); log GI50; 48 h, sulforhodamine B, 10^-4 to 10^-8 M
Method: as §1, §2

Compound	Log GI (M) (NCI-H226)	Log GI (M) (SK-OV-3)	Log GI (M) (HT29)	Log GI (M) (RXF-393)	Log GI (M) (HCT-15)	Log GI (M) (NCI-H322M)	Log GI (M) (HCT-116)	Log GI (M) (HCC-2998)	Log GI (M) (A549/ATCC)	Log GI (M) (MALME-3M)	Log GI (M) (NCI-H460)	Log GI (M) (SNB-75)	Log GI (M) (MCF7)	Log GI (M) (PC-3)	Log GI (M) (M14)	Log GI (M) (NCI-H23)	Log GI (M) (SK-MEL-28)	Log GI (M) (SW-620)	Log GI (M) (K-562)	Log GI (M) (TK-10)	other results
CC[C@H](C)[C@H](NC(=O)[C@H](CCCCN)NC(=O)[C@H](CCCCN)NC(=O)[C@@H](NC(=O)[C@@H](NC(=O)[C@@H](N)Cc1c[nH]cn1)[C@@H](C)CC)[C@@H](C)CC)C(=O)N[C@@H](CCCNC(=N)N)C(=O)N[C@H](C(=O)N[C@@H](Cc1c[nH]c2ccccc12)C(=O)N[C@@H](Cc1ccc(O)cc1)C(=O)N[C@@H](CCCNC(=N)N)C(=O)N[C@@H](CCCCN)C(=O)N[C@@H](C)C(=O)N[C@@H](Cc1c[nH]c2ccccc12)C(=O)N[C@@H](Cc1c[nH]cn1)C(=O)N[C@H](C(=O)N[C@@H](CC(C)C)C(=O)NCC(=O)N[C@@H](CCCCN)C(=O)N[C@H](C(N)=O)C(C)C)C(C)C)[C@@H](C)O [Off2] (H-HIIKKIRTWYRKAWHVLGKV-NH2)	-5.38	-5.20	-4.83	-5.37	-5.37	-5.30	-4.76	-5.41	-5.26	-5.64	-5.48	-4.92	-5.69	-5.55	-5.38	-5.31	-5.58	-5.02	-5.18	-5.49	Log GI (M) (HOP-92): -5.68 M; Log GI (M) (MDA-MB-231/ATCC): -5.19 M; Log GI (M) (UACC-62): -5.69 M; Log GI (M) (HOP-62): -5.34 M; Log GI (M) (SF-295): -5.32 M; Log GI (M) (SF-268): -5.46 M; Log GI (M) (LOX IMVI): -4.66 M
CC[C@H](C)[C@H](NC(=O)[C@H](CCCNC(=N)N)NC(=O)[C@H](Cc1c[nH]c2ccccc12)NC(=O)[C@@H](NC(=O)[C@H](CCCCN)NC(=O)[C@H](CCCCN)NC(=O)[C@@H](NC(=O)[C@@H](NC(=O)[C@@H](NC(=O)[C@H](CCCCN)NC(=O)[C@H](Cc1ccccc1)NC(=O)[C@H](CCCCN)NC(=O)[C@H](CCCCN)NC(=O)[C@H](Cc1ccccc1)NC(=O)[C@@H](NC(=O)[C@@H](N)CCCCN)[C@@H](C)CC)[C@@H](C)O)[C@@H](C)CC)[C@@H](C)CC)C(C)C)C(=O)N[C@@H](Cc1ccccc1)C(=O)NCC(=O)N[C@@H](CCCNC(=N)N)C(=O)N[C@@H](Cc1ccccc1)C(N)=O [AmphiArc2] (H-KIFKKFKTIIKKVWRIFGRF-NH2)	-5.59	-5.50	-5.53	-5.68	-5.58	-5.73	-5.49	-5.58	-5.60	-5.89	-5.62	-5.60	-5.52	-5.66	-5.62	-5.61	-5.66	-5.59	-5.55	-5.65	Log GI (M) (HOP-92): -5.70 M; Log GI (M) (MDA-MB-231/ATCC): -5.72 M; Log GI (M) (UACC-62): -5.69 M; Log GI (M) (HOP-62): -5.62 M; Log GI (M) (SF-295): -5.69 M; Log GI (M) (SF-268): -5.68 M; Log GI (M) (LOX IMVI): -5.53 M
